According to ChEMBL document CHEMBL3232855, “The discovery of N-((2H-tetrazol-5-yl)methyl)-4-((R)-1-((5r,8R)-8-(tert-butyl)-3-(3,5-dichlorophenyl)-2-oxo-1,4-diazaspiro[4.5]dec-3-en-1-yl)-4,4-dimethylpentyl)benzamide (SCH 900822): a potent and selective glucagon receptor antagonist” (J Med Chem, 2014):

Columns and labels:
[1] = biological target: T1, Glucagon receptor (Homo sapiens, UniProt P47871); experiment: Antagonist activity at human GCGR expressed in CHO cells assessed as inhibition of glucagon-stimulated cAMP production preincubated for 30 mins followed by glucagon induction measured after 45 mins by LANCE assay; assay type: functional, cell-based
[2] = biological target: T1, Glucagon receptor; experiment: biochemical; assay type: cell-based, CHO
Description: Displacement of [125I]-glucagon from recombinant human GCGR expressed in CHO cells after 60 mins by scintillation counting analysis

[3] = biological target: Glucagon receptor (Mus musculus, UniProt Q61606); assay type: cell membranes, Liver, Membrane
Description: Displacement of [125I]-glucagon from GCGR in mouse liver membranes after 60 mins by scintillation counting analysis

[4] = biological target: Glucagon-like peptide 1 receptor (Homo sapiens, UniProt P43220); experiment: Antagonist activity at human GLP-1R expressed in CHO cells assessed as inhibition of GLP-1-stimulated cAMP production preincubated for 30 mins followed by GLP-1 induction measured after 45 mins by LANCE assay; assay type: functional, cell-based
Sequence of Glucagon-like peptide 1 receptor (P43220 whole entry): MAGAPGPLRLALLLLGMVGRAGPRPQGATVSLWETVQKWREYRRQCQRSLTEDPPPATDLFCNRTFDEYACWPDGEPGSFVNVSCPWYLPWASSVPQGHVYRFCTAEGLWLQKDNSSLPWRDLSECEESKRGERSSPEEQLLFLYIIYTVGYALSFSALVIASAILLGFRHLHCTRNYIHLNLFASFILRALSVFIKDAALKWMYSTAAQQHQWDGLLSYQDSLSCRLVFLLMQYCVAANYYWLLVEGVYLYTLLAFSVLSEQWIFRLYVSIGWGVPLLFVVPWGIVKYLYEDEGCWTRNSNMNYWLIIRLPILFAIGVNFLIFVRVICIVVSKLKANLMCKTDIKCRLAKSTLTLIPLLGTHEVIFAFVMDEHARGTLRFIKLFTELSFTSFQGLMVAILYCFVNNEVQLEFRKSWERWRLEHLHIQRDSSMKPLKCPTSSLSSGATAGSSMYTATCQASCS

T1 sequence (P47871 whole entry): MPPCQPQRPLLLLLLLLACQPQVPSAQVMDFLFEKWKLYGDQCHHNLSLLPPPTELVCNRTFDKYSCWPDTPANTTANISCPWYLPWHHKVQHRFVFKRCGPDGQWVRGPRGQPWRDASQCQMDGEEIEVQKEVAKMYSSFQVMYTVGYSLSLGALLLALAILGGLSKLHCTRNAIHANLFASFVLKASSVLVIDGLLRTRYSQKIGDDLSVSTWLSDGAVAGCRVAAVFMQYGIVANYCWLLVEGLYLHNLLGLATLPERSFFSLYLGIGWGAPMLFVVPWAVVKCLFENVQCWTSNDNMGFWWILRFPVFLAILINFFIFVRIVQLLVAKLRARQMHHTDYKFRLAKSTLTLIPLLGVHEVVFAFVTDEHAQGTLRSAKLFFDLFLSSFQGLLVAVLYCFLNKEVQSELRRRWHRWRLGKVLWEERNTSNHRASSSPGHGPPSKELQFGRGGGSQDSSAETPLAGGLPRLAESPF
Sequence of Glucagon receptor (Mus musculus, UniProt Q61606) (Q61606 whole entry): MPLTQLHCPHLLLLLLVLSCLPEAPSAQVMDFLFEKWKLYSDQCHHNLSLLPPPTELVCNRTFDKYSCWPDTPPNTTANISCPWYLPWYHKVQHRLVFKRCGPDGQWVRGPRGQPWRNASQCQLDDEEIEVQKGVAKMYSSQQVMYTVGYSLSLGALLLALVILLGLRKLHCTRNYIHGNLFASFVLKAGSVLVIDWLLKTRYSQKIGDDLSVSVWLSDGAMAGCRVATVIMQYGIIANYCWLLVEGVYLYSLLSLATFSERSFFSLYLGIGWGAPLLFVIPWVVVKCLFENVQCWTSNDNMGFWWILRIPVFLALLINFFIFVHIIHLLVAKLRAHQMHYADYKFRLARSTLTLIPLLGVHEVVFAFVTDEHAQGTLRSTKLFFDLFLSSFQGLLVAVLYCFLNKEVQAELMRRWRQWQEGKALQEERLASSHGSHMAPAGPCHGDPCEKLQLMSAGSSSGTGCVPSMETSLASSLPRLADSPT

IC50 [1] | IC50 [2] | IC50 [3] | IC50 [4] | SMILES
530 nM | 120 nM | 6100 nM | > 10000 nM | C[C@H](CC(=O)O)NC(=O)c1ccc([C@@H](CCC(C)(C)C)N2C(=O)C(c3cc(Cl)cc(Cl)c3)=N[C@]23CC[C@@H](C(C)(C)C)CC3)cc1
370 nM | 4 nM | 110 nM | > 10000 nM | CC(C)(C)[C@H]1CC[C@]2(CC1)N=C(c1cc(Cl)cc(Cl)c1)C(=O)N2[C@H](CCC(F)(F)F)c1ccc(C(=O)NCc2nn[nH]n2)cc1
100 nM | 17 nM | 110 nM | > 10000 nM | CC1(CC[C@H](c2ccc(C(=O)NCc3nn[nH]n3)cc2)N2C(=O)C(c3cc(Cl)cc(Cl)c3)=N[C@]23CC[C@@H](C(C)(C)C)CC3)CC1
750 nM | 340 nM | 4600 nM | > 10000 nM | C[C@H](c1ccc(C(=O)NCCC(=O)O)cc1)N1C(=O)C(c2cc(Cl)ccc2F)=N[C@]12CC[C@@H](C(C)(C)C)CC2
630 nM | 360 nM | 5300 nM | > 10000 nM | C[C@H](c1ccc(C(=O)NCCC(=O)O)cc1)N1C(=O)C(c2ccccc2)=N[C@]12CC[C@@H](C(C)(C)C)CC2
140 nM | 21 nM | 100 nM | > 10000 nM | CC(C)(C)CC[C@H](c1ccc(C(=O)NCc2nn[nH]n2)cc1)N1C(=O)C(c2cccc(F)c2)=N[C@]12CC[C@@H](C(C)(C)C)CC2
> 10000 nM | 160 nM | 1500 nM | > 10000 nM | C[C@H](c1ccc(C(=O)NC[C@H](O)C(=O)O)cc1)N1C(=O)C(c2cc(Cl)cc(Cl)c2)=N[C@]12CC[C@@H](C(C)(C)C)CC2
350 nM | 1100 nM | > 10000 nM | > 10000 nM | C[C@H](c1ccc(C(=O)NCCC(=O)O)cc1)N1C(=O)C(c2ccccc2F)=N[C@]12CC[C@@H](C(C)(C)C)CC2
480 nM | 38 nM | 84 nM | > 10000 nM | CC(C)(C)CC[C@H](c1ccc(C(=O)NCc2nn[nH]n2)cc1)N1C(=O)C(c2cncc(Cl)c2)=N[C@]12CC[C@@H](C(C)(C)C)CC2
140 nM | 96 nM | 1200 nM | 6400 nM | C[C@H](c1ccc(C(=O)NCCC(=O)O)cc1)N1C(=O)C(c2cc(Cl)cc(Cl)c2)=N[C@]12CC[C@@H](C(C)(C)C)CC2
130 nM | 14 nM | 130 nM | > 10000 nM | CC(C)(C)CC[C@H](c1ccc(C(=O)NCc2nn[nH]n2)cc1)N1C(=O)C(c2cccc(Cl)c2)=N[C@]12CC[C@@H](C(C)(C)C)CC2
220 nM | 55 nM | 500 nM | > 10000 nM | CCC[C@H](c1ccc(C(=O)NCc2nn[nH]n2)cc1)N1C(=O)C(c2cc(Cl)cc(Cl)c2)=N[C@]12CC[C@@H](C(C)(C)C)CC2
1200 nM | 22 nM | 96 nM | > 10000 nM | CC(C)(C)CC[C@H](c1ccc(C(=O)NCc2nn[nH]n2)cc1)N1C(=O)C(c2cnccc2C(F)(F)F)=N[C@]12CC[C@@H](C(C)(C)C)CC2
760 nM | 15 nM | 420 nM | > 10000 nM | CC(C)C[C@H](c1ccc(C(=O)NCc2nn[nH]n2)cc1)N1C(=O)C(c2cc(Cl)cc(Cl)c2)=N[C@]12CC[C@@H](C(C)(C)C)CC2
180 nM | 13 nM | 140 nM | > 10000 nM | CC(C)(C)CC[C@H](c1ccc(C(=O)NCc2nn[nH]n2)cc1)N1C(=O)C(c2cccc(C(F)(F)F)c2)=N[C@]12CC[C@@H](C(C)(C)C)CC2
260 nM | 890 nM | 3300 nM | 7300 nM | CC(CN1C(=O)C(c2cc(Cl)cc(Cl)c2)=N[C@]12CC[C@@H](C(C)(C)C)CC2)c1ccc(C(=O)NCCC(=O)O)cc1 (some centres undefined)
2900 nM | 520 nM | 5400 nM | > 10000 nM | C[C@H](c1ccc(C(=O)NCCC(=O)O)cc1)N1C(=O)C(c2ccccc2Cl)=N[C@]12CC[C@@H](C(C)(C)C)CC2
630 nM | 620 nM | 4000 nM | > 10000 nM | C[C@H](c1ccc(C(=O)NCCC(=O)O)cc1)N1C(=O)C(c2cccc(Cl)c2F)=N[C@]12CC[C@@H](C(C)(C)C)CC2
110 nM | 23 nM | 140 nM | > 10000 nM | CC(C)(C)CC[C@H](c1ccc(C(=O)NCc2nn[nH]n2)cc1)N1C(=O)C(c2cc(F)cc(F)c2)=N[C@]12CC[C@@H](C(C)(C)C)CC2
1100 nM | 67 nM | 8000 nM | > 10000 nM | C[C@H](c1ccc(C(=O)NCCC(=O)O)cc1)N1C(=O)C(c2ccc(OC(F)(F)F)cc2)=N[C@]12CC[C@@H](C(C)(C)C)CC2
170 nM | 170 nM | 1500 nM | > 10000 nM | CC(C)(C)[C@H]1CC[C@]2(CC1)N=C(c1cc(Cl)cc(Cl)c1)C(=O)N2CCc1ccc(C(=O)NCCC(=O)O)cc1
140 nM | 190 nM | 1300 nM | 3100 nM | CC(Cc1ccc(C(=O)NCCC(=O)O)cc1)N1C(=O)C(c2cc(Cl)cc(Cl)c2)=N[C@]12CC[C@@H](C(C)(C)C)CC2 (some centres undefined)
380 nM | 23 nM | 420 nM | > 10000 nM | CCCC[C@H](c1ccc(C(=O)NCc2nn[nH]n2)cc1)N1C(=O)C(c2cc(Cl)cc(Cl)c2)=N[C@]12CC[C@@H](C(C)(C)C)CC2

Further lines, the compound ahead of its results:

SMILES | IC50 [1] | IC50 [2] | IC50 [3] | IC50 [4]
Cc1cccc(C2=N[C@]3(CC[C@@H](C(C)(C)C)CC3)N([C@H](C)c3ccc(C(=O)NCCC(=O)O)cc3)C2=O)c1 | 490 nM | 150 nM | 1700 nM | > 10000 nM
CC[C@H](c1ccc(C(=O)NCc2nn[nH]n2)cc1)N1C(=O)C(c2cc(Cl)cc(Cl)c2)=N[C@]12CC[C@@H](C(C)(C)C)CC2 | 270 nM | 82 nM | 370 nM | > 10000 nM
CCCCC[C@H](c1ccc(C(=O)NCc2nn[nH]n2)cc1)N1C(=O)C(c2cc(Cl)cc(Cl)c2)=N[C@]12CC[C@@H](C(C)(C)C)CC2 | 130 nM | 24 nM | 310 nM | > 10000 nM
CC(C)CC[C@H](c1ccc(C(=O)NCc2nn[nH]n2)cc1)N1C(=O)C(c2cc(Cl)cc(Cl)c2)=N[C@]12CC[C@@H](C(C)(C)C)CC2 | 150 nM | 22 nM | 280 nM | > 10000 nM
CC(C)(C)CC[C@H](c1ccc(C(=O)NCc2nn[nH]n2)cc1)N1C(=O)C(c2ccc(C(F)(F)F)cc2)=N[C@]12CC[C@@H](C(C)(C)C)CC2 | 160 nM | 7 nM | 190 nM | > 10000 nM
CC(C)(C)CC[C@H](c1ccc(C(=O)NCc2nn[nH]n2)cc1)N1C(=O)C(c2ccc(F)c(F)c2)=N[C@]12CC[C@@H](C(C)(C)C)CC2 | 180 nM | 13 nM | 170 nM | > 10000 nM
CC(C)[C@H]1CC[C@]2(CC1)N=C(c1cc(Cl)cc(Cl)c1)C(=O)N2[C@H](CCC(C)(C)C)c1ccc(C(=O)NCc2nn[nH]n2)cc1 | 52 nM | 31 nM | 200 nM | > 10000 nM
C[C@H](c1ccc(C(=O)NCCC(=O)O)cc1)N1C(=O)C(c2ccc(Cl)c(Cl)c2)=N[C@]12CC[C@@H](C(C)(C)C)CC2 | 550 nM | 95 nM | 3200 nM | 4400 nM
C[C@H](c1ccc(C(=O)NCCC(=O)O)cc1)N1C(=O)C(c2ccc(C(F)(F)F)cc2)=N[C@]12CC[C@@H](C(C)(C)C)CC2 | 910 nM | 170 nM | 2800 nM | > 10000 nM
CC(C)(C)[C@H]1CC[C@]2(CC1)N=C(c1cc(Cl)cc(Cl)c1)C(=O)N2[C@@H](c1ccc(C(=O)NCc2nn[nH]n2)cc1)C1CC1 | 540 nM | 72 nM | 750 nM | > 10000 nM
CC(C)(C)CC[C@H](c1ccc(C(=O)NCc2nn[nH]n2)cc1)N1C(=O)C(c2cc(F)cc(Cl)c2)=N[C@]12CC[C@@H](C(C)(C)C)CC2 | 42 nM | 10 nM | 160 nM | > 10000 nM
CC(C)(C)CC[C@H](c1ccc(C(=O)NCCC(=O)O)cc1)N1C(=O)C(c2cc(Cl)cc(Cl)c2)=N[C@]12CC[C@@H](C(C)(C)C)CC2 | 48 nM | 16 nM | 520 nM | 2000 nM
C[C@H](c1ccc(C(=O)NC[C@@H](O)C(=O)O)cc1)N1C(=O)C(c2cc(Cl)cc(Cl)c2)=N[C@]12CC[C@@H](C(C)(C)C)CC2 | > 10000 nM | 190 nM | 1100 nM | > 10000 nM
C[C@H](c1ccc(C(=O)NCCC(=O)O)cc1)N1C(=O)C(c2cccc(Cl)c2)=N[C@]12CC[C@@H](C(C)(C)C)CC2 | 480 nM | 130 nM | 3300 nM | 3900 nM
C[C@H](c1ccc(C(=O)Nc2nnn[nH]2)cc1)N1C(=O)C(c2cc(Cl)cc(Cl)c2)=N[C@]12CC[C@@H](C(C)(C)C)CC2 | 750 nM | 470 nM | > 10000 nM | 800 nM
C[C@H](c1ccc(C(=O)NCCC(=O)O)cc1)N1C(=O)C(c2ccc(F)cc2)=N[C@]12CC[C@@H](C(C)(C)C)CC2 | 430 nM | 85 nM | 2500 nM | 7800 nM
C[C@H](c1ccc(C(=O)NCCC(=O)O)cc1)N1C(=O)C(c2cccc(F)c2)=N[C@]12CC[C@@H](C(C)(C)C)CC2 | 560 nM | 490 nM | 4400 nM | > 10000 nM
C[C@H](c1ccc(C(=O)NCCC(=O)O)cc1)N1C(=O)C(c2cc(F)cc(Cl)c2)=N[C@]12CC[C@@H](C(C)(C)C)CC2 | 110 nM | 6 nM | 810 nM | 5600 nM
